pIC50: −log10 of the molar value.
target: PD-1/PD-L1 (Homo sapiens (Human), UniProt Q9NZQ7); assay: PD-1/PD-L1 biochemical protein-protein interaction assay (ALPHA); conditions: 0.3 nM His tagged PD-L1, 2.5 nM biotinylated Fc-PD-1, 60 minutes at 25° C., read-out: IC50 PD-L1-PD1
Sequence (Q9NZQ7 19-238): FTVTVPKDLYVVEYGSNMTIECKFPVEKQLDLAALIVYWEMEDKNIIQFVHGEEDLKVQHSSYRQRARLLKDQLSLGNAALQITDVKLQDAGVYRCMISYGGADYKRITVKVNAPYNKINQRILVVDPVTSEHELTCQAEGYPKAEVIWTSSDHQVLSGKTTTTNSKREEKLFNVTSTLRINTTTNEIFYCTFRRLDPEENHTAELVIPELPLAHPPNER

`COc1nc(-c2cccc(-c3cccc(-c4cnc5c(CN6CC7(C6)CN(C(C)=O)C7)cn(C)c5n4)c3Cl)c2Cl)cnc1CN1CC2(C1)CN(C(C)=O)C2` [compound 612] and `COc1nc(-c2cccc(-c3cccc(-c4cnc(CN5CC6(C5)CN(C(C)=O)C6)c(OC)n4)c3Cl)c2F)cnc1CN1CC2(C1)CN(C(C)=O)C2` [compound 4] are within 0.2 log units of each other in pIC50: 10.19 for the first, 10.07 for the second.

`COc1nc(-c2cccc(-c3cccc(-c4cnc(CN5C[C@H](O)[C@@H](C#N)C5)c(OC)n4)c3Cl)c2Cl)cnc1CNC[C@@H]1CCC(=O)N1` [compound 266] and `COc1nc(-c2cccc(-c3cccc(-c4cnc(CN5CC[C@@H](CO)[C@@H](O)C5)c(OC)n4)c3Cl)c2Cl)cnc1CNC[C@@H]1CCC(=O)N1` [compound 300] are within 0.2 log units of each other in pIC50: 9.61 for the first, 9.52 for the second.

`COc1nc(-c2cccc(-c3cccc(-c4cnc(CN5C[C@H](O)[C@@H](O)C5)c(OC)n4)c3Cl)c2Cl)cnc1CN1C[C@H](O)[C@@H](O)C1` [compound 526] and `COc1nc(-c2cccc(-c3cccc(-c4cnc(CN5CC(OC)C5)c(OC)n4)c3Cl)c2Cl)cnc1CN1CC(OC)C1` [compound 400] are within 0.2 log units of each other in pIC50: 9.77 for the first, 9.76 for the second.

First: COc1nc(-c2cccc(-c3cccc(-c4cnc(CN[C@@H]5CCOC5)c(OC)n4)c3Cl)c2Cl)cnc1CN[C@@H]1CCOC1 [compound 143]
Second: COc1nc(-c2cccc(-c3cccc(-c4cnc(CN[C@H]5CCOC5)c(OC)n4)c3Cl)c2Cl)cnc1CNC[C@@H]1CCC(=O)N1 [compound 359]
The pIC50 of the first is 0.49 log units lower: 9.39 for the first, 9.88 for the second. The second is the more potent here.

Compared with `COc1ccnc2c1CN(Cc1ncc(-c3cccc(-c4cccc(-c5cnc(CNC[C@@H]6CCC(=O)N6)c(OC)n5)c4Cl)c3Cl)nc1OC)C2` [compound 414], `COc1nc(-c2cccc(-c3cccc(-c4cnc(CN5CC(C)(O)C5)c(OC)n4)c3Cl)c2Cl)cnc1CNC[C@H]1CCC(=O)N1` [compound 446] is 0.61 log units higher in pIC50: 9.25 for the first, 9.86 for the second. The second is the more potent here.

Compared with `COc1nc(-c2cccc(-c3cccc(-c4cnc(CNC[C@@H]5CCCN5C(C)=O)c(OC)n4)c3Cl)c2Cl)cnc1CNC[C@@H]1CCC(=O)N1` [compound 18], `COc1nc(-c2cccc(-c3cccc(-c4cnc(CNC[C@H]5CCC[C@@H]5O)c(OC)n4)c3Cl)c2Cl)cnc1CNC[C@@H]1CCC(=O)N1` [compound 186] is 0.42 log units higher in pIC50: 9.58 for the first, 10.00 for the second. The second is the more potent here.

Going from `COc1nc(-c2cccc(-c3cccc(-c4cnc(CNC(CCO)C5CC5)c(OC)n4)c3Cl)c2Cl)cnc1CNC[C@@H]1CCC(=O)N1` (some centres unmarked) [compound 237] to `COc1nc(-c2cccc(-c3cccc(-c4cnc(CNC(CO)CCF)c(OC)n4)c3Cl)c2Cl)cnc1CNC[C@@H]1CCC(=O)N1` (some centres unmarked) [compound 247], the pIC50 falls from 10.19 to 9.89 (0.30 log units). The first is the more potent here.

Going from `COc1nc(-c2cccc(-c3cccc(-c4cnc(CN[C@H]5C[C@@](C)(O)C5)c(OC)n4)c3Cl)c2Cl)cnc1CNC[C@@H]1CCC(=O)N1` [compound 274] to `COc1nc(-c2cccc(-c3cccc(-c4cnc(CN[C@H]5C[C@H](OC)C5)c(OC)n4)c3Cl)c2Cl)cnc1CNC[C@@H]1CCC(=O)N1` [compound 364], the pIC50 falls from 9.93 to 9.61 (0.32 log units). The first is the more potent here.

`COc1nc(-c2cccc(-c3cccc(-c4cnc(CN(C)[C@H]5CCOC5)c(OC)n4)c3Cl)c2Cl)cnc1CNC[C@@H]1CCC(=O)N1` [compound 297] and `COc1nc(-c2cccc(-c3cccc(-c4cnc(CNC[C@@H]5CCC(=O)N5)c(OC)n4)c3Cl)c2Cl)cnc1CNCC1CCCCO1` (some centres unmarked) [compound 55] are within 0.2 log units of each other in pIC50: 9.60 for the first, 9.59 for the second.

First: COc1nc(-c2cccc(-c3cccc(-c4cnc(CN5CCC(C)(CO)C5)c(OC)n4)c3Cl)c2Cl)cnc1CNC[C@@H]1CCC(=O)N1 (some centres unmarked) [compound 442]
Second: CCC(=O)NC1CCN(Cc2ncc(-c3cccc(-c4cccc(-c5cnc(CNC[C@@H]6CCC(=O)N6)c(OC)n5)c4Cl)c3Cl)nc2OC)C1 (some centres unmarked) [compound 452]
The pIC50 of the first is 0.23 log units lower: 9.84 for the first, 10.07 for the second. The second is the more potent here.

First: COc1nc(-c2cccc(-c3cccc(-c4cnc(CNC5CCC([S+](C)[O-])C5)c(OC)n4)c3Cl)c2Cl)cnc1CNC[C@@H]1CCC(=O)N1 (some centres unmarked) [compound 222]
Second: COc1nc(-c2cccc(-c3cccc(-c4cnc(CN[C@@H]5CCC(C(N)=O)C5)c(OC)n4)c3Cl)c2Cl)cnc1CNC[C@@H]1CCC(=O)N1 (some centres unmarked) [compound 473]
The pIC50 of the first is 0.49 log units lower: 9.54 for the first, 10.03 for the second. The second is the more potent here.

Compared with `COc1nc(-c2cccc(-c3cccc(-c4cnc(CNC[C@@H]5CCC(=O)N5)c(OC)n4)c3Cl)c2Cl)cnc1CNCC[C@H]1CCC(=O)N1` [compound 314], `COc1nc(-c2cccc(-c3cccc(-c4cnc(CNCC[C@@H]5CCC(=O)N5)c(OC)n4)c3Cl)c2Cl)cnc1CNCC[C@@H]1CCC(=O)N1` [compound 434] is 0.34 log units higher in pIC50: 9.85 for the first, 10.19 for the second. The second is the more potent here.

Compared with `CCNc1nc(-c2cccc(-c3cccc(-c4cnc(CN5CC(O)C5)c(NCC)n4)c3Cl)c2Cl)cnc1CN1CC(O)C1` [compound 66], `CNc1nc(-c2cccc(-c3cccc(-c4cnc(CN5CC(O)C5)c(OC)n4)c3Cl)c2Cl)cnc1CN1CC(O)C1` [compound 60] is 0.64 log units higher in pIC50: 9.21 for the first, 9.85 for the second. The second is the more potent here.

Compared with `COc1nc(-c2cccc(-c3cccc(-c4cnc(CN5CCN(C=O)CC5)c(OC)n4)c3Cl)c2Cl)cnc1CNC[C@@H]1CCC(=O)N1` [compound 256], `COc1nc(-c2cccc(-c3cccc(-c4cnc(CN5CCC(C(N)=O)CC5)c(OC)n4)c3Cl)c2Cl)cnc1CNC[C@@H]1CCC(=O)N1` [compound 508] is 0.28 log units higher in pIC50: 9.80 for the first, 10.08 for the second.

First: CNc1nc(-c2cccc(-c3cccc(-c4cnc(CNC[C@H]5CCC(=O)N5)c(NC)n4)c3Cl)c2Cl)cnc1CNC[C@H]1CCC(=O)N1 [compound 320]
Second: Cc1nc(-c2cccc(-c3cccc(-c4cnc(CNC[C@@H]5CCC(=O)N5)c(C)n4)c3Cl)c2Cl)cnc1CNC[C@@H]1CCC(=O)N1 [compound 96]
The pIC50 of the first is 0.40 log units lower: 8.43 for the first, 8.83 for the second. The second is the more potent here.

Compared with `COc1nc(-c2cccc(-c3cccc(-c4cnc(CN5CC[C@@H](C(C)(C)O)C5)c(OC)n4)c3Cl)c2Cl)cnc1CN1CC[C@@H](C(C)(C)O)C1` [compound 499], `CNC(=O)C1CN(Cc2ncc(-c3cccc(-c4cccc(-c5cnc(CN6CC(C(=O)NC)C6)c(OC)n5)c4Cl)c3Cl)nc2OC)C1` [compound 555] is 0.23 log units lower in pIC50: 9.69 for the first, 9.46 for the second.

Going from `COCC1(NCc2ncc(-c3cccc(-c4cccc(-c5cnc(CNC[C@@H]6CCC(=O)N6)c(OC)n5)c4Cl)c3Cl)nc2OC)CCC1` [compound 185] to `COc1nc(-c2cccc(-c3cccc(-c4cnc(CNC[C@H]5C[C@@H](O)C5)c(OC)n4)c3Cl)c2Cl)cnc1CNC[C@@H]1CCC(=O)N1` [compound 172], the pIC50 rises from 9.32 to 9.65 (0.33 log units). The second is the more potent here.

Going from `COc1nc(-c2cccc(-c3cccc(-c4cnc(CNC[C@@H]5CCC(=O)N5)c(OC)n4)c3Cl)c2Cl)cnc1CNCC1CCNC1=O` (some centres unmarked) [compound 658] to `COc1nc(-c2cccc(-c3cccc(-c4cnc(CNC[C@@H]5CCC(=O)N5)c(OC)n4)c3Cl)c2Cl)cnc1CNCCC(N)=O` [compound 45], the pIC50 rises from 9.71 to 10.19 (0.48 log units). The second is the more potent here.

Compared with `COc1nc(-c2cccc(-c3cccc(-c4ccc(CN5CC6(CCC(=O)N6)C5)c(C#N)c4)c3Cl)c2Cl)cnc1CNC[C@@H]1CCC(=O)N1` [compound 151], `COc1nc(-c2cccc(-c3cccc(-c4cnc(CN5CC6(CNC(=O)C6)C5)c(OC)n4)c3Cl)c2Cl)ccc1CNC[C@@H]1CCC(=O)N1` [compound 633] is 1.03 log units higher in pIC50: 9.16 for the first, 10.19 for the second.

Going from `COc1nc(-c2cccc(-c3cccc(-c4cnc(CNCC5CCS(=O)(=O)N5)c(OC)n4)c3Cl)c2Cl)cnc1CNCC1CCS(=O)(=O)N1` (centres unmarked) [compound 576] to `COc1nc(-c2cccc(-c3cccc(-c4cnc(CNC[C@@H]5CCC(=O)N5)c(OC)n4)c3Cl)c2Cl)cnc1CNCC1CC1CC#N` (some centres unmarked) [compound 220], the pIC50 rises from 9.19 to 9.44 (0.25 log units).

Going from `COc1nc(-c2cccc(-c3cccc(-c4cnc(CN[C@@H]5CC[C@@H]6CC(=O)N[C@@H]65)c(OC)n4)c3Cl)c2Cl)cnc1CNC[C@@H]1CCC(=O)N1` [compound 387] to `COc1nc(-c2cccc(-c3cccc(-c4cnc(CNC5CCN(C)C(=O)C5)c(OC)n4)c3Cl)c2Cl)cnc1CNC[C@@H]1CCC(=O)N1` (some centres unmarked) [compound 416], the pIC50 rises from 9.20 to 9.85 (0.65 log units).

`COc1nc(-c2cccc(-c3cccc(-c4cnc(CN5CC6(CNC(=O)N6)C5)c(OC)n4)c3Cl)c2Cl)cnc1CNC[C@H]1CCC(=O)N1` [compound 207] and `COc1nc(-c2cccc(-c3cccc(-c4cnc(CN5CC(S(C)(=O)=O)C5)c(OC)n4)c3Cl)c2Cl)cnc1CNC[C@@H]1CCC(=O)N1` [compound 574] are within 0.2 log units of each other in pIC50: 9.98 for the first, 9.88 for the second.

First: COc1nc(-c2cccc(-c3cccc(-c4cnc(CNC[C@@H]5CCC(=O)N5)c(OC)n4)c3Cl)c2Cl)cnc1CNCCc1cncnc1 [compound 520]
Second: COc1nc(-c2cccc(-c3cccc(-c4cnc(CNC[C@@H]5CCC(=O)N5)c(OC)n4)c3Cl)c2Cl)cnc1CNCCc1cncc(O)c1 [compound 412]
The pIC50 of the first is 0.41 log units higher: 10.14 for the first, 9.73 for the second. The first is the more potent here.

Compared with `COc1cc(-c2cccc(-c3cccc(-c4cnc(CNC[C@@H]5CCC(=O)N5)c(OC)n4)c3Cl)c2Cl)ccc1CNC[C@@H]1CCC(=O)N1` [compound 125], `COc1nc(-c2cccc(-c3cccc(-c4cnc(CN[C@H]5C[C@@H](S(C)(=O)=O)C5)c(OC)n4)c3Cl)c2Cl)cnc1CNC[C@@H]1CCC(=O)N1` [compound 358] is 0.20 log units higher in pIC50: 9.65 for the first, 9.85 for the second. The second is the more potent here.

`COc1cc(-c2cccc(-c3cccc(-c4cnc(CN5CC6(CNC(=O)C6)C5)c(OC)n4)c3Cl)c2Cl)ccc1CN1CC2(CNC(=O)C2)C1` [compound 123] and `COc1nc(-c2cccc(-c3cccc(-c4ccc5c(CN6CC7(CNC(=O)C7)C6)cn(C)c5n4)c3Cl)c2Cl)cnc1CN1CC2(CNC(=O)C2)C1` [compound 493] are within 0.2 log units of each other in pIC50: 9.95 for the first, 9.96 for the second.

`COc1nc(-c2cccc(-c3cccc(-c4cnc(CN5CCC(c6cccnc6)C5)c(OC)n4)c3Cl)c2Cl)cnc1CNC[C@@H]1CCC(=O)N1` (some centres unmarked) [compound 405] and `COc1nc(-c2cccc(-c3cccc(-c4cnc(CN5CCC(c6ncccn6)C5)c(OC)n4)c3Cl)c2Cl)cnc1CNC[C@@H]1CCC(=O)N1` (some centres unmarked) [compound 408] are within 0.2 log units of each other in pIC50: 9.80 for the first, 9.86 for the second.

Going from `COc1nc(-c2cccc(-c3cccc(-c4cnc(CN5CC(O)C5)c(OC)n4)c3Br)c2F)cnc1CN1CC(O)C1` [compound 395] to `COc1nc(-c2cccc(-c3cccc(-c4cnc(CN5CC(O)C5)c(OC)n4)c3Cl)c2Cl)ccc1CN1CC(O)C1` [compound 439], the pIC50 rises from 8.03 to 9.19 (1.16 log units). The second is the more potent here.

First: O=C1CC2(CN1)CN(Cc1ncc(-c3cccc(-c4cccc(-c5cnc(CN6CC7(CNC(=O)C7)C6)c(Cl)n5)c4Cl)c3Cl)nc1Cl)C2 [compound 109]
Second: COc1nc(-c2cccc(-c3cccc(-c4cnc(CN5CC[C@@H]6CC[C@@H](O)[C@@H]65)c(OC)n4)c3Cl)c2Cl)cnc1CNC[C@@H]1CCC(=O)N1 [compound 216]
The pIC50 of the first is 0.45 log units lower: 9.23 for the first, 9.68 for the second.
